Among the data in ChEMBL document CHEMBL1122705, “Synthesis and pharmacological evaluation of an 8 beta-bis(2-chloroethyl)amino opiate as a nonequilibrium opioid receptor probe” (J Med Chem, 1984) are Activity and IC50 values, retold here.

Common to all, as to assay type: functional
For assay [1], the species on record is Cavia porcellus. In words: Agonist activity in guinea pig ileum at a concentration of 1 uM expressed as percent maximal response.
The species named for assay [2] is Mus musculus. Kind of assay: Agonist activity in mouse vas deferens at a concentration of 200 nM expressed as percent maximal response.
The species entered for assay [3] is Cavia porcellus. Kind of assay: Inhibitory activity in guinea pig longitudinal muscle preparation, n=2. The note with it: Muscle tissue.
The species entered for assay [4] is Mus musculus. Kind of assay: Inhibitory activity in mouse vas deferens, n=4.

Consider `CN1CCC23c4c5ccc(O)c4O[C@H]2C=C[C@H](N(CCCl)CCCl)[C@H]3C1C5` (some centres undefined), for which the values for the Activity in the assay listed under Cavia porcellus [1] and in the assay listed under Mus musculus [2] were 15% and 25%, respectively.
On to `CN1CCC23c4c5ccc(O)c4O[C@H]2C=C[C@H](N=[N+]=[N-])[C@H]3C1C5` (some centres undefined), for which the concentration for half-maximal inhibition (IC50) is 335 nM in the assay listed under Cavia porcellus [3] and 46 nM in the assay filed under Mus musculus [4].
